system: Plasma testosterone concentrations; test: Testosterone in vivo test; conditions: Rattus norvegicus, 2 h; male rats, oral; LHRH-analogue i.m. after one hour; plasma testosterone two hours after administration; 50% inhibition relative to placebo
Experimental: Male rats were administered orally a test compound as a solution or as a suspension in aqueous medium. One hour following drug or placebo administration, a luteinizing hormone releasing hormone- analogue was injected intramuscularly and an anaesthetic was administered intraperitonally. Two hours after the oral administration of the test compound the rats were decapitated, and the blood was collected on heparine. Plasma testosterone concentrations were measured by standard radio-immunological procedures. A 50% inhibition relative to the placebo values was considered as the criterion of testosterone inhibitory activity. ED50-values were determined by probit analysis.

Compound	ED50 [mg/kg]
Cn1cnc2cc(C(c3ccccc3)n3ccnc3)ccc21 (centres unmarked) [Compound 28]	2.5
Cn1c(-c2ccccc2)nc2ccc(C(c3ccccc3)n3ccnc3)cc21 (centres unmarked) [Compound 30]	2.5
c1csc(C(c2ccc3[nH]c(-c4cscn4)nc3c2)n2ccnc2)c1 (centres unmarked) [Compound 34]	2.5
COc1ccc(-c2nc3cc(C(c4ccccc4)n4ccnc4)ccc3[nH]2)cc1 (centres unmarked) [Compound 49]	< 2.5
c1cn(Cc2ccc3[nH]c(-c4cscn4)nc3c2)cn1 [Compound 51]	2.5
Nc1ncccc1-c1nc2cc(Cn3ccnc3)ccc2[nH]1 [Compound 53]	2.5
CCC(c1ccc2[nH]c(-c3ccccc3)nc2c1)n1ccnc1 (centres unmarked) [Compound 54]	2.5
c1ccc2c(Cc3nc4cc(Cn5ccnc5)ccc4[nH]3)c[nH]c2c1 [Compound 71]	2.5
CC(c1ccc2[nH]c(C(F)F)nc2c1)n1ccnc1 (centres unmarked) [Compound 78]	< 2.5
CCC(c1ccc2[nH]c(C(F)(F)F)nc2c1)n1ccnc1 (centres unmarked) [Compound 83, 5-[1-(1 H-imidazol-1-yl)propyl]-2-(trifluoromethyl)-1 H-benzimidazole]	< 2.5
CC(C)C(c1ccc2[nH]c(C(F)(F)F)nc2c1)n1ccnc1 (centres unmarked) [Compound 84, 5-[1-(1 H-imidazol-1-yl)-2-methylpropyl]-2-(trifluoromethyl)-1 H-benzimidazole ethanedioate(1:1).hemihydrate]	< 2.5
Fc1ccccc1-c1nc2ccc(C(c3ccccc3)n3ccnc3)cc2[nH]1 (centres unmarked) [Compound 92, 2-(2-fluorophenyl)-5-[(1 H-imidazol-1-yl)phenylmethyl]-1H-benzimidazole ethanedioate(2:3)]	< 2.5
Clc1cccc(C(c2ccc3[nH]cnc3c2)n2ccnc2)c1 (centres unmarked) [Compound 93, 5-[(3-chlorophenyl)-(1 H-imidazol-1-yl)methyl]-1 H-benzimidazole]	2.5
c1ccc(Cn2cnc3ccc(Cn4ccnc4)cc32)cc1 [Compound 102]	< 2.5
c1ccc(C(c2ccc3[nH]cnc3c2)n2ccnc2)cc1 (centres unmarked) [Compound 111, 5-[(1 H-imidazol-1-yl)phenylmethyl]-1 H-benzimidazole]	< 10
c1cncc(C(c2ccc3[nH]cnc3c2)n2ccnc2)c1 (centres unmarked) [Compound 112, 5-[(1 H-imidazol-1-yl)(3-pyridinyl)methyl]-1 H-benzimidazole]	2.5
c1csc(C(c2ccc3[nH]cnc3c2)n2ccnc2)c1 (centres unmarked) [Compound 113, 5-[(1H-imidazol-1-yl)(2-thienyl)methyl]-1H-benzimidazole]	< 10
COc1nc2cc(C(c3ccccc3)n3ccnc3)ccc2[nH]1 (centres unmarked) [Compound 115, 5-[(1 H-imidazol-1-yl)phenylmethyl]-2-methoxy-1 H-benzimidazole]	2.5
CCC(c1ccc2[nH]cnc2c1)n1ccnc1.Cl.Cl (centres unmarked) [Compound 119, 5-[1-(1 H-imidazol-1-yl)propyl]-1 H-benzimidazole dihydrochloride]	2.5

Compound	ED50 [mg/kg]
Cc1nc2cc(C(c3cccc(Cl)c3)n3ccnc3)ccc2[nH]1 (centres unmarked) [Compound 122, 5-[(3-chlorophenyl)(1 H-imidazol-1-yl)methyl]-2-methyl-1 H-benzimidazole]	2.5
Cc1nc2cc(C(c3cccs3)n3ccnc3)ccc2[nH]1 (centres unmarked) [Compound 125]	2.5
Cc1nc2cc(C(c3ccc(Cl)cc3Cl)n3ccnc3)ccc2[nH]1 (centres unmarked) [Compound 127]	10
CCCCCc1nc2cc(Cn3ccnc3)ccc2[nH]1 [Compound 133]	< 2.5
CCCCCc1nc2cc(C(c3ccccc3)n3ccnc3)ccc2[nH]1 (centres unmarked) [Compound 136]	< 2.5
Fc1cccc(-c2nc3cc(Cn4ccnc4)ccc3[nH]2)c1 [Compound 141]	2.5
Fc1ccc(-c2nc3cc(Cn4ccnc4)ccc3[nH]2)cc1 [Compound 142]	2.5
Cc1nc2cc(C(C(C)C)n3ccnc3)ccc2n1C (centres unmarked) [Compound 160]	2.5
Cc1ccc(-c2nc3cc(C(c4ccccc4)n4ccnc4)ccc3[nH]2)cc1 (centres unmarked) [Compound 173]	< 2.5
Fc1ccc(-c2nc3cc(C(c4ccccc4)n4ccnc4)ccc3[nH]2)cc1 (centres unmarked) [Compound 174]	< 2.5
Cc1nc2cc(C(C(C)C)n3ccnc3)ccc2[nH]1 (centres unmarked) [Compound 182]	2.5
CC(c1ccc2[nH]c(-c3cccnc3)nc2c1)n1ccnc1 (centres unmarked) [Compound 189, 5-[1-(1H-imidazol-1-yl)ethyl]-2-(3-pyridinyl)-1H-benzimidazole]	2.5
c1ccc(C(c2ccc3[nH]c(-c4cccnc4)nc3c2)n2ccnc2)cc1 (centres unmarked) [Compound 190, 5-[(1 H-imidazol-1-yl)phenylmethyl]-2-(3-pyridinyl)-1H-benzimidazole]	10
Cc1nc2cc(C(C)n3ccnc3)ccc2[nH]1.Cl.Cl (centres unmarked) [Compound 206, 5-[1-(1 H-imidazol-1-yl)ethyl]-2-methyl-1 H-benzimidazole dihydrochloride]	< 2.5
Cn1c(O)nc2cc(Cn3ccnc3)ccc21 [Compound 222, 5-(1 H-imidazol-1-ylmethyl)-1-methyl-1 H-benzimidazol-2-ol]	< 2.5
COn1c(-c2ccccc2)nc2ccc(Cn3ccnc3)cc21 [Compound 227, 6-(1 H-imidazol-1-ylmethyl)-1-methoxy-2-phenyl-1 H-benzimidazole]	2.5
COn1c(-c2cccnc2)nc2ccc(Cn3ccnc3)cc21 [Compound 229]	2.5
COn1c(C)nc2ccc(C(c3ccccc3)n3ccnc3)cc21 (centres unmarked) [Compound 231]	2.5
COn1c(-c2ccc(F)cc2)nc2ccc(C(C)n3ccnc3)cc21 (centres unmarked) [Compound 235]	2.5

Source: patent EP0260744B1, “(1H-imidazol-1-ylmethyl) substituted benzimidazole derivatives” (JANSSEN PHARMACEUTICA N.V., priority 1986, dated 1988)
